Assays:
[1] = Cell viability assay (AlamarBlue) in HepAD38 cells; settings: human
[2] = system: HBV; experiment: Determination of HBV DNA from the supernatants of HepAD38 cells (anti-HBV activity); type: cell-based, hepatitis B virus; settings: Hepatitis B virus, 144 h; HBV DNA in HepAD38 supernatant, day 6, qPCR; read-out: Cell Activity (EC50)
Experimental: Determination of HBV DNA from the Supernatants of HepAD38 Cells
The anti-HBV activity was analysed in the stable transfected cell line HepAD38, which has been described to secrete high levels of HBV virion particles (Ladner et al., 1997). In brief, HepAD38 cells were cultured at 37° C. at 5% CO2 and 95% humidity in 200 μl maintenance medium, which was Dulbecco's modified Eagle's medium/Nutrient Mixture F-12 (Gibco, Karlsruhe), 10% fetal bovine serum (PAN Biotech Aidenbach) supplemented with 50 μg/ml penicillin/streptomycin (Gibco, Karlsruhe), 2 mM L-glutamine (PAN Biotech, Aidenbach), 400 μg/ml G418 (AppliChem, Darmstadt) and 0.3 μg/ml tetracycline. Cells were subcultured once a week in a 1:5 ratio, but were usually not passaged more than ten times. For the assay 60,000 cells were seeded in maintenance medium without any tetracycline into each well of a 96-well plate and treated with serial half-log dilutions of test compound. To minimize edge effects the outer 36 wells of the plate were not used but were filled with assay medium. On each assay plate six wells for the virus control (untreated HepAD38 cells) and six wells for the cell control (HepAD38 cells treated with 0.3 μg/ml tetracycline) were allocated, respectively. In addition, one plate set with reference inhibitors like BAY 41-4109, entecavir, and lamivudine instead of screening compounds were prepared in each experiment. In general, experiments were performed thrice in triplicates. At day 6 HBV DNA from 100 μl filtrated cell culture supernatant (AcroPrep Advance 96 Filter Plate, […] Supor membran, PALL GmbH, Dreieich) was automatically purified on the MagNa Pure LC instrument using the MagNA Pure 96 DNA and Viral NA Small Volume Kit (Roche Diagnostics, Mannheim) according to the instructions of the manufacturer. EC50 values were calculated from relative copy numbers of HBV DNA In brief, 5 μl of the 100 μl eluate containing HBV DNA were subjected to PCR LC480 Probes Master Kit (Roche) together with 1 μM antisense primer […], 0.5 μM sense primer […], 0.3 μM hybprobes […]-FL and LC640-[…]-PH (TIBMoBiol, Berlin) to a final volume of 12.5 μl. The PCR was performed on the Light Cycler 480 real time system (Roche Diagnostics, Mannheim) using the following protocol: Pre-incubation for 1 min at 95° C., amplification: 40 cycles×(10 sec at 95° C., 50 sec at 60° C., 1 sec at 70° C.), cooling for 10 sec at 40° C. Viral load was quantitated against known standards using HBV plasmid DNA of pCH-9/3091 (Nassal et al., 1990, Cell 63: 1357-1363) and the LightCycler 480 SW 1.5 software (Roche Diagnostics, Mannheim) and EC50 values were calculated using non-linear regression with GraphPad Prism 6 (GraphPad Software Inc., La Jolla, USA).

| SMILES | CC50 at 6 days [1] | EC50 [2] |
| --- | --- | --- |
| O=C(c1cc2c(F)c(F)c(F)cc2[nH]1)N1CCc2n[nH]c(-c3cscn3)c2C1 [Example 11, 4,5,6-trifluoro-2-[3-(1,3-thiazol-4-yl)-2H,4H,5H,6H,7H-pyrazolo[4,3-c]pyridine-5-carbonyl]-1H-indole] | > 10 µM | < 1 µM |
| O=C(c1cc2c(Cl)c(F)ccc2[nH]1)N1CCc2n[nH]c(-c3cscn3)c2C1 [Example 13, 4-chloro-5-fluoro-2-[3-(1,3-thiazol-4-yl)-2H,4H,5H,6H,7H-pyrazolo[4,3-c]pyridine-5-carbonyl]-1H-indole] | > 10 µM | < 1 µM |
| O=C(c1cc2cc(F)c(F)cc2[nH]1)N1CCc2n[nH]c(-c3cscn3)c2C1 [Example 14, 5,6-difluoro-2-[3-(1,3-thiazol-4-yl)-2H,4H,5H,6H,7H-pyrazolo[4,3-c]pyridine-5-carbonyl]-1H-indole] | > 10 µM | < 1 µM |
| CCc1c(F)ccc2[nH]c(C(=O)N3CCc4n[nH]c(-c5cscn5)c4C3)cc12 [Example 25, 4-ethyl-5-fluoro-2-[3-(1,3-thiazol-4-yl)-2H,4H,5H,6H,7H-pyrazolo[4,3-c]pyridine-5-carbonyl]-1H-indole] | > 10 µM | 1 to 25 µM |
| CC1c2c(-c3cscn3)n[nH]c2CCN1C(=O)c1cc2c(Cl)cc(F)cc2[nH]1 (centres unmarked) [Example 35, 4-chloro-6-fluoro-2-[4-methyl-3-(1,3-thiazol-4-yl)-1H,4H,5H,6H,7H-pyrazolo[4,3-c]pyridine-5-carbonyl]-1H-indole] | > 32 µM | < 1 µM |
| O=C(NC1CCCCC1)c1n[nH]c2c1CN(C(=O)c1cc3ccccc3[nH]1)CC2 [Example 87, N-cyclohexyl-5-(1H-indole-2-carbonyl)-1H,4H,5H,6H,7H-pyrazolo[4,3-c]pyridine-3-carboxamide] | > 100 µM | 1 to 25 µM |
| C[C@@H]1CCC[C@@H](C)N1C(=O)c1n[nH]c2c1CN(C(=O)c1cc3ccccc3[nH]1)CC2 [Example 146, 2-{3-[(2R,6R)-2,6-dimethylpiperidine-1-carbonyl]-1H,4H,5H,6H,7H-pyrazolo[4,3-c]pyridine-5-carbonyl}-1H-indole] | > 10 µM | 1 to 25 µM |
| O=C(c1cc2ccccc2[nH]1)N1CCc2[nH]nc(C(=O)N3CCCC34CCC4)c2C1 [Example 151, 2-(3-{5-azaspiro[3.4]octane-5-carbonyl}-1H,4H,5H,6H,7H-pyrazolo[4,3-c]pyridine-5-carbonyl)-1H-indole] | > 10 µM | 1 to 25 µM |
| Cn1ncc2c1CN(C(=O)c1n[nH]c3c1CN(C(=O)c1cc4ccccc4[nH]1)CC3)C2 [Example 168, 2-(3-{1-methyl-1H,4H,5H,6H-pyrrolo[3,4-c]pyrazole-5-carbonyl}-1H,4H,5H,6H,7H-pyrazolo[4,3-c]pyridine-5-carbonyl)-1H-indole] | > 10 µM | 1 to 25 µM |
| O=C(c1cc2ccccc2[nH]1)N1CCc2[nH]nc(C(=O)N3CCC4(CCO4)C3)c2C1 (centres unmarked) [Example 182, 2-(3-{1-oxa-6-azaspiro[3.4]octane-6-carbonyl}-1H,4H,5H,6H,7H-pyrazolo[4,3-c]pyridine-5-carbonyl)-1H-indole] | > 10 µM | 1 to 25 µM |
| O=C(c1cc2ccccc2[nH]1)N1CCc2[nH]nc(C(=O)N3CCC4(COC4)C3)c2C1 [Example 183, 2-(3-{2-oxa-6-azaspiro[3.4]octane-6-carbonyl}-1H,4H,5H,6H,7H-pyrazolo[4,3-c]pyridine-5-carbonyl)-1H-indole] | > 10 µM | 1 to 25 µM |
| O=C(c1cc2ccccc2[nH]1)N1CCc2[nH]nc(C(=O)N3CCC(F)(F)C3)c2C1 [Example 186, 2-[3-(3,3-difluoropyrrolidine-1-carbonyl)-1H,4H,5H,6H,7H-pyrazolo[4,3-c]pyridine-5-carbonyl]-1H-indole] | > 10 µM | < 1 µM |
| O=C(c1cc2ccccc2[nH]1)N1CCc2[nH]nc(C(=O)N3CCCC(F)(F)C3)c2C1 [Example 187, 2-[3-(3,3-difluoropiperidine-1-carbonyl)-1H,4H,5H,6H,7H-pyrazolo[4,3-c]pyridine-5-carbonyl]-1H-indole] | > 10 µM | < 1 µM |
| CN(C(=O)c1n[nH]c2c1CN(C(=O)c1cc3ccccc3[nH]1)CC2)[C@@H]1CCCC[C@@H]1O [Example 200, N-[(1R,2S)-2-hydroxycyclohexyl]-5-(1H-indole-2-carbonyl)-N-methyl-1H,4H,5H,6H,7H-pyrazolo[4,3-c]pyridine-3-carboxamide] | > 10 µM | 1 to 25 µM |
| O=C(c1cc2ccccc2[nH]1)N1CCc2[nH]nc(S(=O)(=O)N3CC(F)(F)C3)c2C1 [Example 209, 2-{3-[(3,3-difluoroazetidin-1-yl)sulfonyl]-1H,4H,5H,6H,7H-pyrazolo[4,3-c]pyridine-5-carbonyl}-1H-indole] | > 10 µM | < 1 µM |
| O=C(c1cc2ccccc2[nH]1)N1CCc2[nH]nc(S(=O)(=O)N3CCCC3)c2C1 [Example 210, 2-[3-(pyrrolidine-1-sulfonyl)-1H,4H,5H,6H,7H-pyrazolo[4,3-c]pyridine-5-carbonyl]-1H-indole] | > 10 µM | < 1 µM |
| COCCN(C)S(=O)(=O)c1n[nH]c2c1CN(C(=O)c1cc3ccccc3[nH]1)CC2 [Example 212, 5-(1H-indole-2-carbonyl)-N-(2-methoxyethyl)-N-methyl-1H,4H,5H,6H,7H-pyrazolo[4,3-c]pyridine-3-sulfonamide] | > 10 µM | 1 to 25 µM |
| CCc1cc(F)cc2[nH]c(C(=O)N3CCc4[nH]nc(C(=O)N5CCCC56CC6)c4C3)cc12 [Example 214, 2-(3-{4-azaspiro[2.4]heptane-4-carbonyl}-1H,4H,5H,6H,7H-pyrazolo[4,3-c]pyridine-5-carbonyl)-4-ethyl-6-fluoro-1H-indole] | > 10 µM | < 1 µM |
| O=C(c1cc2c(Cl)cc(F)cc2[nH]1)N1CCc2[nH]nc(C(=O)N3CCCC34CC4)c2C1 [Example 215, 2-(3-{4-azaspiro[2.4]heptane-4-carbonyl}-1H,4H,5H,6H,7H-pyrazolo[4,3-c]pyridine-5-carbonyl)-4-chloro-6-fluoro-1H-indole] | > 10 µM | < 1 µM |
| O=C(c1cc2c(Cl)cccc2[nH]1)N1CCc2[nH]nc(C(=O)N3CCCC34CC4)c2C1 [Example 216, 2-(3-{4-azaspiro[2.4]heptane-4-carbonyl}-1H,4H,5H,6H,7H-pyrazolo[4,3-c]pyridine-5-carbonyl)-4-chloro-1H-indole] | > 10 µM | < 1 µM |
| O=C(c1cc2c(Cl)c(F)ccc2[nH]1)N1CCc2[nH]nc(C(=O)N3CCC(F)(F)C3)c2C1 [Example 217, 4-chloro-2-[3-(3,3-difluoropyrrolidine-1-carbonyl)-1H,4H,5H,6H,7H-pyrazolo[4,3-c]pyridine-5-carbonyl]-5-fluoro-1H-indole] | > 10 µM | < 1 µM |
| CN(C(=O)c1n[nH]c2c1CN(C(=O)c1cc3ccccc3[nH]1)CC2)C1(COC(=O)c2ccccc2)CC1 [Example 219, {1-[N-methyl 5-(1H-indole-2-carbonyl)-1H,4H,5H,6H,7H-pyrazolo[4,3-c]pyridine-3-amido]cyclopropyl}methyl benzoate] | > 10 µM | < 1 µM |
| O=C(NC1CC1)c1n[nH]c2c1CN(C(=O)c1cc3ccccc3[nH]1)CC2 [Example 220, N-cyclopropyl-5-(1H-indole-2-carbonyl)-1H,4H,5H,6H,7H-pyrazolo[4,3-c]pyridine-3-carboxamide] | > 10 µM | 1 to 25 µM |
| CN(C(=O)c1n[nH]c2c1CN(C(=O)c1cc3ccccc3[nH]1)CC2)C1(c2ccccc2)CC1 [Example 221, 5-(1H-indole-2-carbonyl)-N-methyl-N-(1-phenylcyclopropyl)-1H,4H,5H,6H,7H-pyrazolo[4,3-c]pyridine-3-carboxamide] | > 10 µM | < 1 µM |
| O=C(c1cc2ccccc2[nH]1)N1CCc2[nH]nc(C(=O)N3CC(F)(F)C3)c2C1 [Example 222, 2-[3-(3,3-difluoroazetidine-1-carbonyl)-1H,4H,5H,6H,7H-pyrazolo[4,3-c]pyridine-5-carbonyl]-1H-indole] | > 10 µM | < 1 µM |
